# Laboratory results: patent EP0912571B1, “NAPHTHYRIDINES WHICH AFFECT IL-4 AND G-CSF” (SCHERING CORPORATION, priority 1996, dated 1997)
# Tests used:
# human G-CSF production = assay: In vitro enhancement of G-CSF production in PHA-stimulated PBMNC's (ELISA of culture supernatant); format: cell-based; settings: PBMNC's with 5µg/ml PHA
# Protocol: (§1) In order to determine the effect of compound AA on human G-CSF production, human peripheral blood mononuclear cells (PBMNC's) were prepared (as described in Ficoll-Paque: For in vitro isolation of lymphocytes (booklet) 1983 Pharmacia, Uppsala Sweden; which is hereby incorporated by reference) and cultured as described (in Oster et al, 1989 Blood 73:64. which is hereby incorporated by reference) with 5µg/ml phytohemagglutin (PHA) in the presence of varying concentrations of compound AA or vehicle (0.1% dimethylsulfoxide, DMSO). After 40 hours, culture supernatant was collected and cytokine levels measured by ELISA (R&D Systems, Minneapolis MN). Alternatively mRNA was prepared by standard protocols from these cells after 24 hour incubation, reverse-transcribed and subjected to polymerase chain reaction (PCR)
# [1] = tested on: TNFα, TNFβ, IL-1α, IL-1 β, IL-3, IL-6, IL-8, or GM-CSF; assay: Specificity: production of other cytokines in the PBMNC culture (ELISA); format: cell-based, human; settings: PHA-stimulated PBMNC's
# Protocol: as §1
# This effect was specific for G-CSF, since no change in the production of TNFα, TNFβ, IL-1α, IL-1 β, IL-3, IL-6, IL-8, or GM-CSF was observed.
# G-CSF mRNA = assay: Steady-state G-CSF mRNA levels in stimulated cell cultures (reverse transcription, PCR); format: cell-based, human
# BALB/cJ mice = assay: In vivo acceleration of recovery from neutropenia in cyclophosphamide-treated mice (flow cytometry of granulocytes); settings: for granulocyte recovery: return to normal numbers: 40 mg/kg daily from day 1 after single sublethal dose of CY on day 0
# Protocol: To test the activity of compound AA in enhancing peripheral neutrophil numbers and accelerating recovery of the neutrophil compartment, BALB/cJ mice were rendered neutropenic by treatment with a single sublethal dose of CY on day 0. Mice were then treated daily, starting on day 1, with 40 mg/kg compound AA or vehicle (carboxymethyl cellulose CMC) and sacrificed on days 3, 5, 6, 8 or 10 and granulocyte populations in peripheral blood and spleen analyzed by flow cytometry. Granulocytes were detected using the RB6-8C5 antibody, specific for granulocytes (see Hestdal et al 1991 J. Immunol. 147:22. which is hereby incorporated by reference) and the Mac-1 antibody, specific for myeloid cells (see Springer et al JEur. J. lmmunol. 9: 301). […] Compound AA administration accelerated granulocyte recovery in both blood and spleen, with a return to normal numbers by day 5 in blood and day 4 in spleen. These granulocytes were confirmed to be exclusively segmented neutrophils by cytological examination. Neutrophil recovery was delayed by 1-2 days in CY-dosed mice given vehicle, compared to compound AA - treated animals. No changes in percentage or number of monocytes were observed.
# [2] = tested on: bone marrow steady-state G-CSF mRNA; assay: Endogenous G-CSF in CY-dosed mice: bone marrow steady-state G-CSF mRNA by PCR; format: in vivo; settings: CY-dosed mice administered compound AA
# Protocol: Acceleration of neutrophil recovery by compound AA may occur by stimulating neutrophil development at the level of the bone marrow (see Demetri et al 1991 Blood 78: 2791).To confirm that compound AA was acting in vivo by enhancing endogenous G-CSF production, bone marrow steady-state G-CSF mRNA levels were determined by PCR.
# [3] = tested on: mice made neutropenic with CY; assay: Comparison of compound AA with rhG-CSF in the CY neutropenia model; format: in vivo; settings: compound AA at 40mg/kg daily, granulocyte levels in peripheral blood on day 5
# Protocol: Exogeneous G-CSF administration is now standard therapy for patients undergoing a neutropenic episode In order to compare compound AA treatment with G-CSF therapy in the CY model described above, we administered either compound AA or recombinant human G-CSF daily to mice made neutropenic with CY. Granulocyte levels in peripheral blood were determined on day 5.
# [4] = 40 mg/kg daily, CY-treated mice
structure (smiles),measurement,setting,value
CC(=O)Nc1ccc(S(=O)(=O)Nc2nc(-c3ncccc3C)cc3cccnc23)cc1 [compound AA],EC50,"human G-CSF production; Homo sapiens, G-CSF levels, 40 hours, read-out: effective concentration50 (EC50)",15 µM
same,increase in G-CSF levels,"human G-CSF production; supernatant after 40 hours, ELISA",4-5 fold
same,"change in the production of TNFα, TNFβ, IL-1α, IL-1 β, IL-3, IL-6, IL-8, or GM-CSF",[1],no change
same,Steady-state G-CSF mRNA levels,G-CSF mRNA; LPS-stimulated monocytes,increased
same,Steady-state G-CSF mRNA levels,G-CSF mRNA; PHA-stimulated PBMNC's,increased
same,"delay of neutrophil recovery in CY-dosed mice given vehicle, compared to compound AA-treated animals",BALB/cJ mice; 40 mg/kg daily,1 to 2 days
same,changes in percentage or number of monocytes,BALB/cJ mice; [4],No changes
same,gross toxicity or abnormalities,BALB/cJ mice; [4],No evidence of gross toxicity or abnormalities
same,granulocyte recovery: return to normal numbers,BALB/cJ mice; blood,≤ 5 days
same,granulocyte recovery: return to normal numbers,BALB/cJ mice; spleen,≤ 4 days
same,bone marrow G-CSF mRNA levels,[2],enhanced
same,ability to enhance peripheral blood neutrophil numbers versus 250mg/kg rhG-CSF,[3],comparable
same,ability to enhance peripheral blood neutrophil numbers versus 50-125mg/kg rhG-CSF,[3],greater
